Measurements reported in BindingDB's records for doi:10.7270/Q2PZ576Z (The Scripps Research Institute Molecular Screening Center, 2007).
pEC50: −log10 of the molar value.

Target: Sphingosine 1-phosphate receptor 3 (Homo sapiens, UniProt Q99500)
Experiment: S1P3 receptor activation, EC50 – cell-based, NFAT-BLA reporter, dose response (AID 439)
[1] = inactive by the depositor's call

Sphingosine 1-phosphate receptor 3, sequence (Q99500 whole entry): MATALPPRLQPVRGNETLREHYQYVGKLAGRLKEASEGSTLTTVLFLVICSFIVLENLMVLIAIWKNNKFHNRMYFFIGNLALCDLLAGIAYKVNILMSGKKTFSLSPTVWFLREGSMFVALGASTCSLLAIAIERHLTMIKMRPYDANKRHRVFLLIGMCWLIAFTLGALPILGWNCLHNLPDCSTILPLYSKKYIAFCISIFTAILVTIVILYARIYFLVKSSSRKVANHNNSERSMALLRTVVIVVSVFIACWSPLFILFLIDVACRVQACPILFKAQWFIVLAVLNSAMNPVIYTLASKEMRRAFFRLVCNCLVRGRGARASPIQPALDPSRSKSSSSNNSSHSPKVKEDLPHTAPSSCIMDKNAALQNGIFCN

| pEC50 [1] | pEC50 | SMILES |
| --- | --- | --- |
| 3.90 |  | Cc1cccc2cc3c(NC(=O)c4ccccn4)nn(C)c3nc12 [MLS000082760] |
|  | 4.59 | Cc1cc(C(=O)N(C2CCCCC2)C2CCCCC2)no1 [MLS000087301] |
|  | < 4.35 | O=C(Cc1cccs1)NCc1cn2ccccc2n1 [MLS000103862] |
|  | 5.57 | CCCc1cc(C(=O)N(C2CCCCC2)C2CCCCC2)no1 [MLS000116372] |
|  | < 4.35 | Cc1ccc(-n2c(=O)[nH]cc(C(=O)Nc3ccc4c(c3)OCCO4)c2=O)cc1C [N-(2,3-dihydro-1,4-benzodioxin-6-yl)-3-(3,4-dimethylphenyl)-2,4-bis(oxidanylidene)-1H-pyrimidine-5-carboxamide] |
| 4.09 |  | Cc1ccc(NC(=O)CC2Nc3ccccc3NC2=O)cc1Cl (stereo not given) [N-(3-chloranyl-4-methyl-phenyl)-2-(3-oxidanylidene-2,4-dihydro-1H-quinoxalin-2-yl)ethanamide] |
| 4.71 |  | CCC(C)c1ccc2oc(-c3ccc(NC(=O)c4nnc[nH]4)cc3)nc2c1 (stereo not given) [N-[4-(5-sec-butyl-1,3-benzoxazol-2-yl)phenyl]-1H-1,2,4-triazole-3-carboxamide] |
|  | < 4.35 | C=CCn1c(=O)c(C#N)cc2c(=O)n3ccccc3nc21 [SMR000029848] |
| 4.53 |  | CC(C)Cn1c(N)c(C(=O)NCc2cccs2)c2nc3ccccc3nc21 [SMR000043082] |
|  | 5.17 | Cc1cc(C)n(-c2nc(NCCO)c3c4c(sc3n2)CCCC4)n1 [SMR000046729] |
|  | < 4.35 | Cc1ccc2nc3c(cc(C#N)c(=O)n3-c3nccs3)c(=O)n2c1 [SMR000047276] |
| 4.19 |  | N=c1c(C(=O)NCc2ccco2)cc2c(=O)n3ccccc3nc2n1Cc1ccc(Cl)cc1 [SMR000047818] |
| 4.51 |  | Cc1onc(-c2c(Cl)cccc2Cl)c1C(=O)N1CCc2ccccc21 [[3-(2,6-dichlorophenyl)-5-methyl-1,2-oxazol-4-yl]-(2,3-dihydroindol-1-yl)methanone] |
|  | 5.14 | CCOC(=O)c1cc2ccc(OC(=O)c3ccco3)cc2oc1=O [ethyl 7-(2-furoyloxy)-2-oxo-2H-chromene-3-carboxylate] |

| SMILES | pEC50 [1] | pEC50 |
| --- | --- | --- |
| Nc1c(C(=O)NC2CCCC2)c2nc3ccccc3nc2n1CC1CCCO1 (stereo not given) [MLS000080255] | 4.83 |  |
